One assay relates to A549. The experiment in a line: Antiproliferative activity against human A549 cells after 48 hrs by MTT assay. It is filed as functional, cell-based. To be noted: A549, 48 h.
Assay [1] in a line: Antiproliferative activity against human IOSE-144 cells after 48 hrs by MTT assay. The format is cell-based. To be noted: IOSE-144, 48 h.
A further assay deals with LoVo. The experiment in a line: Antiproliferative activity against human LoVo cells after 48 hrs by MTT assay. The format is functional, cell-based.
The test system of assay [2] is MCF7. The experiment in a line: Antiproliferative activity against human MCF7 cells after 48 hrs by MTT assay. It is filed as functional, cell-based. The conditions noted are these: for IC50: MCF7, 48 h.
In assay [3] the test system is MCF7. The experiment in a line: Antiproliferative activity against human MCF7 cells assessed as cell viability at 30 uM after 48 hrs by MTT assay. To be noted: MCF7, 48 h, read-out: Activity. It is filed as functional.

The structures appear in SMILES notation.

Our source for the IC50, viability and Activity values is ChEMBL document CHEMBL2062480, “Semi-synthesis and anti-tumor evaluation of novel 25-hydroxyprotopanaxadiol derivatives” (Eur J Med Chem, 2012).

Turning to `CCCCCCCCCCCCCCCC(=O)O[C@H]1CC[C@]2(C)[C@H]3C[C@@H](O)[C@@H]4[C@@H]([C@](C)(O)CCCC(C)(C)O)CC[C@@]4(C)[C@]3(C)CC[C@H]2C1(C)C`, the IC50 (in the assay with A549; in assay [1]; in the assay on LoVo; in the assay on MCF7 [2]) was over 100 µM throughout.
For the compound `CCCCCCCC/C=C\CCCCCCCC(=O)O[C@@H]1C[C@@H]2[C@@]3(C)CC[C@H](O)C(C)(C)[C@@H]3CC[C@@]2(C)[C@]2(C)CC[C@H]([C@](C)(O)CCCC(C)(C)O)[C@@H]12`, the IC50 (with A549; in assay [1]; in the assay with LoVo; in the assay with MCF7 [2]) was over 100 µM throughout.
For the compound `CCCCCCCCCCCC(=O)O[C@H]1CC[C@]2(C)[C@H]3C[C@@H](O)[C@@H]4[C@@H]([C@](C)(O)CCCC(C)(C)O)CC[C@@]4(C)[C@]3(C)CC[C@H]2C1(C)C`, the IC50 (in the assay on A549; in assay [1]; with LoVo; with MCF7 [2]) was over 100 µM each time.
With `CCCCCCCC/C=C\CCCCCCCC(=O)O[C@H]1CC[C@]2(C)[C@H]3C[C@@H](O)[C@@H]4[C@@H]([C@](C)(O)CCCC(C)(C)O)CC[C@@]4(C)[C@]3(C)CC[C@H]2C1(C)C`, the IC50 (with A549; in assay [1]; in the assay with LoVo; with MCF7 [2]) was over 100 µM in each case.
`O=c1[nH]cc(F)c(=O)[nH]1` [FLUOROURACIL]: the concentration for half-maximal inhibition (IC50) came out at 12.8 µM in the assay on A549, 25.6 µM in assay [1], 3.3 µM with LoVo and 16.2 µM with MCF7 [2]. The viability at 30 µM with MCF7 [3] was 42.5%.
Take `CCCCCCCCCCCCCC(=O)O[C@H]1CC[C@]2(C)[C@H]3C[C@@H](O)[C@@H]4[C@@H]([C@](C)(O)CCCC(C)(C)O)CC[C@@]4(C)[C@]3(C)CC[C@H]2C1(C)C`: the IC50 (in the assay with A549; in assay [1]; with LoVo; with MCF7 [2]) was over 100 µM each time.
`CC(C)(O)CCC[C@@](C)(O)[C@H]1CC[C@]2(C)[C@@H]1[C@H](OC=O)C[C@@H]1[C@@]3(C)CC[C@H](OC=O)C(C)(C)[C@@H]3CC[C@]12C`: the half-inhibitory concentration (IC50) in the assay with A549 is 12.5 µM; in assay [1], over 100 µM; in the assay with LoVo, 49.5 µM; with MCF7 [2], 1.1 µM. Besides, the viability at 30 µM with MCF7 [3] worked out at 10.6%.
In the case of `CCCCCCCCC(=O)O[C@H]1CC[C@]2(C)[C@H]3C[C@@H](O)[C@@H]4[C@@H]([C@](C)(O)CCCC(C)(C)O)CC[C@@]4(C)[C@]3(C)CC[C@H]2C1(C)C`, the IC50 with A549 is over 50 µM; in assay [1], over 100 µM; in the assay with LoVo, over 50 µM; in the assay with MCF7 [2], over 50 µM.
Consider `CCCCCCCCCCCCCCCC(=O)O[C@@H]1C[C@@H]2[C@@]3(C)CC[C@H](O)C(C)(C)[C@@H]3CC[C@@]2(C)[C@]2(C)CC[C@H]([C@](C)(O)CCCC(C)(C)O)[C@@H]12`, for which the IC50 with A549 was over 50 µM; in assay [1] it was over 100 µM; in the assay on LoVo it was over 100 µM; in the assay on MCF7 [2], over 50 µM.
Turning to `CCCCCC(=O)O[C@H]1CC[C@]2(C)[C@H]3C[C@@H](O)[C@@H]4[C@@H]([C@](C)(O)CCCC(C)(C)O)CC[C@@]4(C)[C@]3(C)CC[C@H]2C1(C)C`, the concentration for half-maximal inhibition (IC50) with A549 was 26.2 µM; in assay [1], over 100 µM; in the assay with LoVo, over 50 µM; with MCF7 [2], over 50 µM.
In the case of `CCCCCCCCCCCC(=O)O[C@@H]1C[C@@H]2[C@@]3(C)CC[C@H](O)C(C)(C)[C@@H]3CC[C@@]2(C)[C@]2(C)CC[C@H]([C@](C)(O)CCCC(C)(C)O)[C@@H]12`, the IC50 was over 100 µM in the assay on A549, over 100 µM in assay [1], over 50 µM in the assay with LoVo and over 100 µM in the assay on MCF7 [2].
Take `CC(C)(O)CCC[C@@](C)(O)[C@H]1CC[C@]2(C)[C@@H]1[C@H](OC=O)C[C@@H]1[C@@]3(C)CC[C@H](O)C(C)(C)[C@@H]3CC[C@]12C`: the IC50 in the assay on A549 was 15.9 µM; in assay [1], over 100 µM; in the assay with LoVo, 49.6 µM; with MCF7 [2] it was 11.6 µM. Besides, the viability at 30 µM in the assay with MCF7 [3] is 15.1%.
For `CCCCCCCCCCCCCC(=O)O[C@@H]1C[C@@H]2[C@@]3(C)CC[C@H](O)C(C)(C)[C@@H]3CC[C@@]2(C)[C@]2(C)CC[C@H]([C@](C)(O)CCCC(C)(C)O)[C@@H]12`, the IC50 (in the assay on A549; in assay [1]; in the assay on LoVo; in the assay with MCF7 [2]) was over 100 µM throughout.
Take `CCC(=O)O[C@H]1CC[C@]2(C)[C@H]3C[C@@H](OC(=O)CC)[C@@H]4[C@@H]([C@](C)(O)CCCC(C)(C)O)CC[C@@]4(C)[C@]3(C)CC[C@H]2C1(C)C`: the IC50 was 14.9 µM in the assay on A549, over 100 µM in assay [1], 45.3 µM in the assay on LoVo and 20.6 µM with MCF7 [2].
For `CCCCCCC(=O)O[C@H]1CC[C@]2(C)[C@H]3C[C@@H](O)[C@@H]4[C@@H]([C@](C)(O)CCCC(C)(C)O)CC[C@@]4(C)[C@]3(C)CC[C@H]2C1(C)C` the same measures were 16.8 µM, over 100 µM, over 50 µM and 33.7 µM.
Taken in the same sequence, the figures for `CCCCC(=O)O[C@H]1CC[C@]2(C)[C@H]3C[C@@H](OC(=O)CCCC)[C@@H]4[C@@H]([C@](C)(O)CCCC(C)(C)O)CC[C@@]4(C)[C@]3(C)CC[C@H]2C1(C)C` were 49.9 µM, over 100 µM, over 50 µM and over 50 µM.
Take `CCC(=O)O[C@H]1CC[C@]2(C)[C@H]3C[C@@H](O)[C@@H]4[C@@H]([C@](C)(O)CCCC(C)(C)O)CC[C@@]4(C)[C@]3(C)CC[C@H]2C1(C)C`: the half-maximal inhibitory concentration (IC50) in the assay on A549 was 43.6 µM; in assay [1], over 100 µM; in the assay on LoVo it was over 50 µM; in the assay on MCF7 [2], 12.5 µM. For the same compound, the Activity entry in the assay with MCF7 [2] is “Dose-dependent effect”.
With `CCCCCCCCCCCCCCCCCC(=O)O[C@@H]1C[C@@H]2[C@@]3(C)CC[C@H](O)C(C)(C)[C@@H]3CC[C@@]2(C)[C@]2(C)CC[C@H]([C@](C)(O)CCCC(C)(C)O)[C@@H]12`, the IC50 (in the assay on A549; in assay [1]; in the assay on LoVo; with MCF7 [2]) was over 100 µM in each case.
Take `CCCC(=O)O[C@H]1CC[C@]2(C)[C@H]3C[C@@H](O)[C@@H]4[C@@H]([C@](C)(O)CCCC(C)(C)O)CC[C@@]4(C)[C@]3(C)CC[C@H]2C1(C)C`: the IC50 in the assay on A549 was 35.5 µM; in assay [1] it was over 100 µM; in the assay with LoVo, over 50 µM; in the assay with MCF7 [2] it was 42.8 µM.
With `CC(=O)O[C@H]1CC[C@]2(C)[C@H]3C[C@@H](O)[C@@H]4[C@@H]([C@](C)(O)CCCC(C)(C)O)CC[C@@]4(C)[C@]3(C)CC[C@H]2C1(C)C`, the IC50 was 15.7 µM with A549, over 100 µM in assay [1], over 50 µM in the assay with LoVo and 15.2 µM with MCF7 [2]. The Activity entry in the assay on MCF7 [2] was “Dose-dependent effect”.
Turning to `CCCCCCCCCC(=O)O[C@@H]1C[C@@H]2[C@@]3(C)CC[C@H](O)C(C)(C)[C@@H]3CC[C@@]2(C)[C@]2(C)CC[C@H]([C@](C)(O)CCCC(C)(C)O)[C@@H]12`, the IC50 in the assay on A549 is 29.6 µM; in assay [1] it was over 100 µM; with LoVo it was over 50 µM; in the assay on MCF7 [2] it was 26.2 µM.
For the compound `CCCCCCCC(=O)O[C@H]1CC[C@]2(C)[C@H]3C[C@@H](O)[C@@H]4[C@@H]([C@](C)(O)CCCC(C)(C)O)CC[C@@]4(C)[C@]3(C)CC[C@H]2C1(C)C`, the half-maximal inhibitory concentration (IC50) in the assay with A549 is 46.7 µM; in assay [1] it was over 100 µM; in the assay on LoVo it was over 50 µM; in the assay with MCF7 [2] it was over 100 µM.
Turning to `CC(=O)O[C@H]1CC[C@]2(C)[C@H]3C[C@@H](OC(C)=O)[C@@H]4[C@@H]([C@](C)(O)CCCC(C)(C)O)CC[C@@]4(C)[C@]3(C)CC[C@H]2C1(C)C`, the IC50 in the assay on A549 was 14.8 µM; in assay [1], over 100 µM; with LoVo, 43.4 µM; in the assay with MCF7 [2], 25.3 µM.
For `CCCCC(=O)O[C@H]1CC[C@]2(C)[C@H]3C[C@@H](O)[C@@H]4[C@@H]([C@](C)(O)CCCC(C)(C)O)CC[C@@]4(C)[C@]3(C)CC[C@H]2C1(C)C` the same measures were over 50 µM, over 100 µM, over 50 µM and over 50 µM.
For `CCCCCCCCCCCCCCCCCC(=O)O[C@H]1CC[C@]2(C)[C@H]3C[C@@H](O)[C@@H]4[C@@H]([C@](C)(O)CCCC(C)(C)O)CC[C@@]4(C)[C@]3(C)CC[C@H]2C1(C)C` the same measures were over 100 µM, over 100 µM, over 100 µM and over 100 µM.
Consider `CC(C)(O)CCC[C@@](C)(O)[C@H]1CC[C@]2(C)[C@@H]1[C@H](O)C[C@@H]1[C@@]3(C)CC[C@H](OC=O)C(C)(C)[C@@H]3CC[C@]12C`, for which the IC50 in the assay on A549 is 39.2 µM; in assay [1], over 100 µM; in the assay on LoVo, over 50 µM; with MCF7 [2], 11.5 µM. Moreover, the Activity result in the assay on MCF7 [2] is “Dose-dependent effect”.
On to `CCCCCCC(=O)O[C@@H]1C[C@@H]2[C@@]3(C)CC[C@H](O)C(C)(C)[C@@H]3CC[C@@]2(C)[C@]2(C)CC[C@H]([C@](C)(O)CCCC(C)(C)O)[C@@H]12`, for which the IC50 was 16.5 µM in the assay with A549, over 100 µM in assay [1], 48.1 µM with LoVo and 16.3 µM in the assay with MCF7 [2].
Taken in the same sequence, the figures for `CCCCCCCCCC(=O)O[C@H]1CC[C@]2(C)[C@H]3C[C@@H](O)[C@@H]4[C@@H]([C@](C)(O)CCCC(C)(C)O)CC[C@@]4(C)[C@]3(C)CC[C@H]2C1(C)C` were over 100 µM, over 100 µM, over 50 µM and over 100 µM.
